Test results taken from ChEMBL document CHEMBL1134911, “Nodulisporic acid B, B1, and B2: a series of 1'-deoxy-nodulisporic acids from Nodulisporium sp” (Bioorg Med Chem Lett, 2002).

Assays:
Conditions in all cases: pulicinae; call rule not given here
[1] = Lethal dose was evaluated against flea; NA means not active at 100 ppm; assay type: ADME
[2] = Lethal dose was evaluated against flea
[3] = Lethal dose was evaluated against flea; partial activity; assay type: ADME

Compound	LD90 [1]	LD90 [2]	LD90 [3]
C=C(C)[C@H]1Cc2c3c(cc4c2N1C(=O)[C@@]1(C)[C@@H](CC[C@H]2[C@](C)(/C=C/C=C(\C)C(=O)OC)[C@@H](O)CC[C@@]21C)CC4=O)C1=CC(C)(C)OC(C)(C)[C@H]1[C@@H]3O	Not Active		
C=C(C)[C@H]1Cc2c3c(cc4c5c(n1c24)[C@@]1(C)[C@@H](CC[C@@H]2[C@]1(C)CC[C@]1(O)O[C@H](C(O)C(C)C(=O)[O-])C[C@@]21C)C5)C1=CC(C)(C)OC(C)(C)[C@H]1[C@@H]3O.[Na+] (stereo partly specified)	Not Active		
C=C(C)[C@H]1Cc2c3c(cc4c5c(n1c24)[C@@]1(C)[C@@H](CC[C@H]2[C@](C)(/C=C/C=C(\C)C(=O)OC)[C@@H](O)CC[C@@]21C)C5)C1=CC(C)(C)OC(C)(C)[C@H]1[C@@H]3O		100 p.p.m.	10 p.p.m.
C=C(C)[C@H]1C(=O)c2c3c(cc4c5c(n1c24)[C@@]1(C)[C@@H](CC[C@H]2[C@](C)(/C=C/C=C(\C)C(=O)OC)[C@@H](O)CC[C@@]21C)C5)C1=CC(C)(C)OC(C)(C)[C@H]1[C@@H]3O		10 p.p.m.	
C=C(C)[C@H]1Cc2c3c(cc4c5c(n1c24)[C@@]1(C)[C@@H](CC[C@@H]2[C@]1(C)CC[C@]1(O)O[C@H](/C=C(\C)C(=O)[O-])C[C@@]21C)C5)C1=CC(C)(C)OC(C)(C)[C@H]1[C@@H]3O.[Na+]	Not Active		
C=C(C)[C@H]1Cc2c3c(cc4c5c(n1c24)[C@@]1(C)[C@@H](CC[C@H]2[C@](C)(/C=C/C=C(\C)C(=O)[O-])[C@@H](O)CC[C@@]21C)C5)C1=CC(C)(C)OC(C)(C)[C@H]1[C@@H]3O.[Na+]		100 p.p.m.	
C=C(C)[C@H]1C(=O)c2c3c(cc4c5c(n1c24)[C@@]1(C)C(CC[C@H]2[C@](C)(/C=C/C=C(\C)C(=O)O)[C@@H](O)CC[C@@]21C)C5)C1=CC(C)(C)OC(C)(C)C1[C@@H]3O (stereo partly specified) [NOD ACID A]		1 p.p.m.	
C=C(C)[C@H]1C(=O)c2c3c(cc4c5c(n1c24)[C@@]1(C)[C@@H](CC[C@@H]2[C@]1(C)CC[C@]1(O)O[C@H](/C=C(\C)C(=O)O)C[C@@]21C)C5)C1=CC(C)(C)OC(C)(C)[C@H]1[C@@H]3O [NODULISPORIC ACID A1]		5 p.p.m.	
C=C(C)[C@H]1C(=O)c2c3c(cc4c5c(n1c24)[C@@]1(C)[C@@H](CC[C@@H]2[C@]1(C)CC[C@]1(O)O[C@H](C(O)C(C)C(=O)O)C[C@@]21C)C5)C1=CC(C)(C)OC(C)(C)[C@H]1[C@@H]3O (stereo partly specified) [NODULISPORIC ACID A2]		10 p.p.m.	
IVERMECTIN		10 p.p.m.	
